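Dose response: 5 concentrations. Exposure: 48 h. Format: 96-well plates. Endpoint: linear interpolation; highest concentration if not reached. Here, GI50 denotes the concentration required for 50% inhibition of growth. TGI: concentration producing complete growth inhibition.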
How the values were obtained:
Experiment in all cases: NCI-60 cell line screen, 48 h
SK-MEL-2 melanoma = test system: SK-MEL-2 melanoma
CCRF-CEM leukemia = test system: CCRF-CEM leukemia
HS 578T breast = test system: HS 578T breast
T-47D breast = test system: T-47D breast
SK-OV-3 ovarian = test system: SK-OV-3 ovarian
SNB-19 CNS = test system: SNB-19 CNS
SF-295 CNS = test system: SF-295 CNS
RPMI-8226 leukemia = test system: RPMI-8226 leukemia
NCI-H522 lung = test system: NCI-H522 lung
IGROV1 ovarian = test system: IGROV1 ovarian
HT29 colon = test system: HT29 colon
SNB-75 CNS = test system: SNB-75 CNS
COLO 205 colon = test system: COLO 205 colon
MDA-MB-435 = test system: MDA-MB-435
OVCAR-4 ovarian = test system: OVCAR-4 ovarian
U251 CNS = test system: U251 CNS
NCI/ADR-RES ovarian = test system: NCI/ADR-RES ovarian
SK-MEL-28 melanoma = test system: SK-MEL-28 melanoma
MCF7 breast = test system: MCF7 breast
UACC-62 melanoma = test system: UACC-62 melanoma
HCC-2998 colon = test system: HCC-2998 colon
HL-60(TB) leukemia = test system: HL-60(TB) leukemia
SF-268 CNS = test system: SF-268 CNS
UO-31 renal = test system: UO-31 renal
M14 melanoma = test system: M14 melanoma
TK-10 renal = test system: TK-10 renal
HOP-92 NSCLC = test system: HOP-92 NSCLC
DU-145 prostate = test system: DU-145 prostate
A498 renal = test system: A498 renal
UACC-257 melanoma = test system: UACC-257 melanoma
K-562 leukemia = test system: K-562 leukemia
786-0 renal = test system: 786-0 renal
PC-3 prostate = test system: PC-3 prostate
NCI-H460 lung = test system: NCI-H460 lung
MOLT-4 leukemia = test system: MOLT-4 leukemia
RXF 393 renal = test system: RXF 393 renal
A549 NSCLC = test system: A549 NSCLC
MALME-3M melanoma = test system: MALME-3M melanoma
OVCAR-8 ovarian = test system: OVCAR-8 ovarian
NCI-H23 lung = test system: NCI-H23 lung
SF-539 CNS = test system: SF-539 CNS
HOP-62 NSCLC = test system: HOP-62 NSCLC
MDA-MB-231 breast = test system: MDA-MB-231 breast
SR leukemia = test system: SR leukemia
CAKI-1 renal = test system: CAKI-1 renal
SK-MEL-5 melanoma = test system: SK-MEL-5 melanoma
SN12C renal = test system: SN12C renal
ACHN renal = test system: ACHN renal
HCT-116 colon = test system: HCT-116 colon
HCT-15 colon = test system: HCT-15 colon
LOX IMVI melanoma = test system: LOX IMVI melanoma
SW-620 colon = test system: SW-620 colon
OVCAR-5 ovarian = test system: OVCAR-5 ovarian
OVCAR-3 ovarian = test system: OVCAR-3 ovarian
EKVX NSCLC = test system: EKVX NSCLC
NCI-H226 lung = test system: NCI-H226 lung
BT-549 breast = test system: BT-549 breast
KM12 colon = test system: KM12 colon

Compound Cc1ccc(-c2cc3c(NC(=O)C4CC4)ncnc3o2)cc1 has a GI50 (SK-MEL-2 melanoma) of over 25 µM, a TGI (SK-MEL-2 melanoma) of over 25 µM and a GI50 (CCRF-CEM leukemia) of over 25 µM. The TGI (CCRF-CEM leukemia) was over 25 µM, the GI50 (HS 578T breast) was over 25 µM and the TGI (HS 578T breast) was over 25 µM. The GI50 (T-47D breast) was over 25 µM, the TGI (T-47D breast) was over 25 µM and the GI50 (SK-OV-3 ovarian) was over 25 µM. It also gave a TGI (SK-OV-3 ovarian) of over 25 µM, a GI50 (SNB-19 CNS) of over 25 µM and a TGI (SNB-19 CNS) of over 25 µM. The GI50 (SF-295 CNS) was over 25 µM, the TGI (SF-295 CNS) was over 25 µM and the GI50 (RPMI-8226 leukemia) was over 25 µM. The TGI (RPMI-8226 leukemia) was over 25 µM, the GI50 (NCI-H522 lung) was over 25 µM and the TGI (NCI-H522 lung) was over 25 µM. The GI50 (IGROV1 ovarian) was over 25 µM, the TGI (IGROV1 ovarian) was over 25 µM and the GI50 (HT29 colon) was over 25 µM. For the same compound, the TGI (HT29 colon) was over 25 µM, the GI50 (SNB-75 CNS) was 24.2 µM and the TGI (SNB-75 CNS) was over 25 µM. The GI50 (COLO 205 colon) was over 25 µM, the TGI (COLO 205 colon) was over 25 µM and the GI50 (MDA-MB-435) was over 25 µM. The TGI (MDA-MB-435) was over 25 µM, the GI50 (OVCAR-4 ovarian) was over 25 µM and the TGI (OVCAR-4 ovarian) was over 25 µM. The GI50 (U251 CNS) was over 25 µM, the TGI (U251 CNS) was over 25 µM and the GI50 (NCI/ADR-RES ovarian) was over 25 µM. It also gave a TGI (NCI/ADR-RES ovarian) of over 25 µM, a GI50 (SK-MEL-28 melanoma) of over 25 µM and a TGI (SK-MEL-28 melanoma) of over 25 µM. It also gave a GI50 (MCF7 breast) of over 25 µM, a TGI (MCF7 breast) of over 25 µM and a GI50 (UACC-62 melanoma) of over 25 µM. The TGI (UACC-62 melanoma) was over 25 µM, the GI50 (HCC-2998 colon) was over 25 µM and the TGI (HCC-2998 colon) was over 25 µM. It also gave a GI50 (HL-60(TB) leukemia) of over 25 µM, a TGI (HL-60(TB) leukemia) of over 25 µM and a GI50 (SF-268 CNS) of over 25 µM. It also gave a TGI (SF-268 CNS) of over 25 µM, a GI50 (UO-31 renal) of over 25 µM and a TGI (UO-31 renal) of over 25 µM. For the same compound, the GI50 (M14 melanoma) was over 25 µM, the TGI (M14 melanoma) was over 25 µM and the GI50 (TK-10 renal) was over 25 µM. For the same compound, the TGI (TK-10 renal) was over 25 µM, the GI50 (HOP-92 NSCLC) was over 25 µM and the TGI (HOP-92 NSCLC) was over 25 µM. For the same compound, the GI50 (DU-145 prostate) was over 25 µM, the TGI (DU-145 prostate) was over 25 µM and the GI50 (A498 renal) was over 25 µM. It also gave a TGI (A498 renal) of over 25 µM, a GI50 (UACC-257 melanoma) of over 25 µM and a TGI (UACC-257 melanoma) of over 25 µM. For the same compound, the GI50 (K-562 leukemia) was over 25 µM, the TGI (K-562 leukemia) was over 25 µM and the GI50 (786-0 renal) was over 25 µM. For the same compound, the TGI (786-0 renal) was over 25 µM, the GI50 (PC-3 prostate) was over 25 µM and the TGI (PC-3 prostate) was over 25 µM. It also gave a GI50 (NCI-H460 lung) of over 25 µM, a TGI (NCI-H460 lung) of over 25 µM and a GI50 (MOLT-4 leukemia) of over 25 µM. The TGI (MOLT-4 leukemia) was over 25 µM, the GI50 (RXF 393 renal) was over 25 µM and the TGI (RXF 393 renal) was over 25 µM. The GI50 (A549 NSCLC) was over 25 µM, the TGI (A549 NSCLC) was over 25 µM and the GI50 (MALME-3M melanoma) was over 25 µM. For the same compound, the TGI (MALME-3M melanoma) was over 25 µM, the GI50 (OVCAR-8 ovarian) was over 25 µM and the TGI (OVCAR-8 ovarian) was over 25 µM. It also gave a GI50 (NCI-H23 lung) of over 25 µM, a TGI (NCI-H23 lung) of over 25 µM and a GI50 (SF-539 CNS) of over 25 µM. It also gave a TGI (SF-539 CNS) of over 25 µM, a GI50 (HOP-62 NSCLC) of over 25 µM and a TGI (HOP-62 NSCLC) of over 25 µM. For the same compound, the GI50 (MDA-MB-231 breast) was over 25 µM, the TGI (MDA-MB-231 breast) was over 25 µM and the GI50 (SR leukemia) was over 25 µM. For the same compound, the TGI (SR leukemia) was over 25 µM, the GI50 (CAKI-1 renal) was over 25 µM and the TGI (CAKI-1 renal) was over 25 µM. The GI50 (SK-MEL-5 melanoma) was over 25 µM, the TGI (SK-MEL-5 melanoma) was over 25 µM and the GI50 (SN12C renal) was over 25 µM. It also gave a TGI (SN12C renal) of over 25 µM, a GI50 (ACHN renal) of over 25 µM and a TGI (ACHN renal) of over 25 µM. The GI50 (HCT-116 colon) was over 25 µM, the TGI (HCT-116 colon) was over 25 µM and the GI50 (HCT-15 colon) was over 25 µM. The TGI (HCT-15 colon) was over 25 µM, the GI50 (LOX IMVI melanoma) was over 25 µM and the TGI (LOX IMVI melanoma) was over 25 µM. For the same compound, the GI50 (SW-620 colon) was over 25 µM, the TGI (SW-620 colon) was over 25 µM and the GI50 (OVCAR-5 ovarian) was over 25 µM. It also gave a TGI (OVCAR-5 ovarian) of over 25 µM, a GI50 (OVCAR-3 ovarian) of over 25 µM and a TGI (OVCAR-3 ovarian) of over 25 µM. It also gave a GI50 (EKVX NSCLC) of over 21.3 µM, a TGI (EKVX NSCLC) of over 25 µM and a GI50 (NCI-H226 lung) of over 25 µM. For the same compound, the TGI (NCI-H226 lung) was over 25 µM, the GI50 (BT-549 breast) was over 25 µM and the TGI (BT-549 breast) was over 25 µM. The GI50 (KM12 colon) was over 25 µM and the TGI (KM12 colon) was over 25 µM.
